Here are results for 35 compounds from US9353051B2, “Antiviral drugs for treatment or prevention of dengue infection” (Siga Technologies Inc., priority 2007, dated 2016).

For the assay, the system named is Dengue-2 (Strain New Guinea C). Briefly: viral yield assay against Dengue-2 in Vero cells. Conditions: Dengue virus; for EC90: read-out: EC90 Yield Den-2. In kind it is cell-based. The method, then:
Compounds that were active in the primary screen were also tested for activity in viral yield assays. […] Vero cells in 12-well plates were infected with dengue-2 virus at a multiplicity of infection (MOI) of 0.1, treated with compound (or DMSO as a control), incubated at 37° C., harvested 48 hours post infection and titered on Vero cells as described above. The EC50 was calculated through ExcelFit. Those compounds with activity below 1 μM are indicated with “A”, those with activity between 1 and 10 μM are indicated with “B”, those with activity between 10 and 25 μM with “C”, and those with activity above 25 μM are indicated with “D”.

Where [1] appears, read: Vero cells, MOI 0.1, harvested 48 hours post infection, read-out: Activity (anti-dengue 2 viral activity, EC50).
[2] abbreviates: viral yield assay, Vero cells, read-out: EC50 Yield Den-2.

Where two headings read alike, the source gives them in different places.

Consider `CCN(CC)S(=O)(=O)c1ccc(NC(=O)Cn2cnc3sccc3c2=O)cc1` [Compound 5, N-(4-Diethylsulfamoyl-phenyl)-2-(4-oxo-4H-thieno[2,3-d]pyrimidin-3-yl)-acetamide], for which the EC50 under setting [1] was 1 to 10 µM.

For the compound `CCN(CC)S(=O)(=O)c1ccc(NC(=O)Cn2cnc3sc(C)c(C)c3c2=O)cc1` [Compound 10, N-(4-Diethylsulfamoyl-phenyl)-2-(5,6-dimethyl-4-oxo-4H-thieno[2,3-d]pyrimidin-3-yl)-acetamide], the EC50 by setting is: under setting [1], 1 to 10 µM; under setting [2], 1.25 µM. Moreover, the EC90 (viral yield assay, Vero cells) was greater than 50 µM.

For the compound `CCc1cc2c(=O)n(CC(=O)Nc3ccc(S(=O)(=O)N(CC)CC)cc3)cnc2s1` [Compound 11, N-(4-Diethylsulfamoyl-phenyl)-2-(6-ethyl-4-oxo-4H-thieno[2,3-d]pyrimidin-3-yl)-acetamide], the EC50 under setting [1] lay within 1 to 10 µM and the EC50 under setting [2] turned out to be 4.9 µM. In addition, the EC90 (viral yield assay, Vero cells) was greater than 50 µM.

For `CCN(CC)S(=O)(=O)c1ccc2c(c1)CCN2C(=O)Cn1cnc2ccccc2c1=O` [Compound 17, 1-[2-(4-Oxo-4H-quinazolin-3-yl)-acetyl]-2,3-dihydro-1H-indole-5-sulfonic acid diethylamide], the EC50 by setting is: under setting [1], 1 to 10 µM; under setting [2], 5.1 µM. For the same compound, the EC90 (viral yield assay, Vero cells) is 12.1 µM.

Turning to `CC1CCCC(C)N1S(=O)(=O)c1ccc(NC(=O)Cn2cnc3ccccc3c2=O)cc1` (stereo not shown) [Compound 18, N-[4-(2,6-Dimethyl-piperidine-1-sulfonyl)-phenyl]-2-(4-oxo-4H-quinazolin-3-yl)-acetamide], the EC50 under setting [1] was in the range of 1 to 10 µM.

On to `CC1CC(C)CN(S(=O)(=O)c2ccc(NC(=O)Cn3cnc4ccccc4c3=O)cc2)C1` (stereo not shown) [Compound 19, N-[4-(3,5-Dimethyl-piperidine-1-sulfonyl)-phenyl]-2-(4-oxo-4H-quinazolin-3-yl)-acetamide], for which, under setting [1], the EC50 was in the range of 1 to 10 µM.

With `CCN(CC)S(=O)(=O)c1ccc(OC)c(NC(=O)Cn2nnc3ccccc3c2=O)c1` [Compound 20, N-(5-Diethylsulfamoyl-2-methoxy-phenyl)-2-(4-oxo-4H-benzo[d][1,2,3]triazin-3-yl)-acetamide], the EC50 (Vero, read-out: EC50 Yield Den-2) came to 1.3 µM and the EC50 under setting [1] lay within 1 to 10 µM. The EC90 (Vero) came to 20 µM.

With `CCN(CC)S(=O)(=O)c1ccc(NC(=O)Cn2cnc3ccsc3c2=O)cc1` [Compound 22, N-(4-Diethylsulfamoyl-phenyl)-2-(4-oxo-4H-thieno[3,2-d]pyrimidin-3-yl)-acetamide], the EC50 under setting [1] was in the range of 10 to 25 µM.

On to `CCN(CC)S(=O)(=O)c1ccc(NC(=O)Cn2cnc3cc(Cl)ccc3c2=O)cc1` [Compound 23, 2-(7-Chloro-4-oxo-4H-quinazolin-3-yl)-N-(4-diethylsulfamoyl-phenyl)-acetamide], for which the EC50 under setting [1] fell in the range of 10 to 25 µM.

Regarding `CCN(CC)S(=O)(=O)c1ccc(NC(=O)Cn2cnc3c(oc4ccccc43)c2=O)cc1` [Compound 24, N-(4-Diethylsulfamoyl-phenyl)-2-(4-oxo-4H-benzo [4,5]furo[3,2-d]pyrimidin-3-yl)-acetamide], the EC50 under setting [1] lay in the range of 10 to 25 µM.

Take `CCN(CC)S(=O)(=O)c1ccc(OC(C)C)c(NC(=O)CCn2nnc3ccccc3c2=O)c1` [Compound 25, N-(5-Diethylsulfamoyl-2-isopropoxy-phenyl)-3-(4-oxo-4H-benzo[d][1,2,3]triazin-3-yl)-propionamide]: under setting [1], the EC50 is 10 to 25 µM.

Turning to `CCN(CC)S(=O)(=O)c1ccc(NC(=O)Cn2cnc3c(C)cccc3c2=O)cc1` [Compound 26, N-(4-Diethylsulfamoyl-phenyl)-2-(8-methyl-4-oxo-4H-quinazolin-3-yl)-acetamide], the EC50 under setting [1] was in the range of 10 to 25 µM.

With `CCN(CC)S(=O)(=O)c1ccc(OC)c(NC(=O)CCn2nnc3ccccc3c2=O)c1` [Compound 27, N-(5-Diethylsulfamoyl-2-methoxy-phenyl)-3-(4-oxo-4H-benzo[d][1,2,3]triazin-3-yl)-propionamide], under setting [1], the EC50 lay in the range of 10 to 25 µM.

As for `CC1CCCC(C)N1S(=O)(=O)c1ccc(NC(=O)Cn2cnc3sccc3c2=O)cc1` (stereo not shown) [Compound 28, N-[4-(2,6-Dimethyl-piperidine-1-sulfonyl)-phenyl]-2-(4-oxo-4H-thieno[2,3-d]pyrimidin-3-yl)-acetamide], the EC50 under setting [1] was in the range of 10 to 25 µM.

With `CCN(CC(=O)Nc1ccc(S(=O)(=O)N(CC)CC)cc1)Cc1nc2ccccc2c(=O)[nH]1` [Compound 29, N-(4-Diethylsulfamoyl-phenyl)-2-[ethyl-(4-oxo-3,4-dihydro-quinazolin-2-ylmethyl)-amino]-acetamide], the concentration for a half-maximal effect (EC50) under setting [1] was 10 to 25 µM.

Turning to `O=C(Cn1cnc2ccccc2c1=O)Nc1ccc(S(=O)(=O)NCC(F)(F)F)cc1` [Compound 30, 2-(4-Oxo-4H-quinazolin-3-yl)-N-[4-(2,2,2-trifluoro-ethylsulfamoyl)-phenyl]-acetamide], under setting [1], the EC50 fell in the range of 10 to 25 µM.

As to `O=C(Cn1cnc2ccccc2c1=O)Nc1ccc(S(=O)(=O)N2CCCC2)cc1` [Compound 31, 2-(4-Oxo-4H-quinazolin-3-yl)-N-[4-(pyrrolidine-1-sulfonyl)-phenyl]-acetamide], the EC50 under setting [1] was greater than 25 µM.

On to `O=C(Cn1cnc2ccccc2c1=O)Nc1ccc(S(=O)(=O)Nc2nccs2)cc1` [Compound 32, 2-(4-Oxo-4H-quinazolin-3-yl)-N-[4-(thiazol-2-ylsulfamoyl)-phenyl]-acetamide], for which the EC50 under setting [1] was greater than 25 µM.

For the compound `Cc1cc(C)nc(NS(=O)(=O)c2ccc(NC(=O)Cn3cnc4ccccc4c3=O)cc2)n1` [Compound 33, N-[4-(4,6-Dimethyl-pyrimidin-2-ylsulfamoyl)-phenyl]-2-(4-oxo-4H-quinazolin-3-yl)-acetamide], the EC50 under setting [1] was greater than 25 µM.

With `O=C(Cn1cnc2ccccc2c1=O)Nc1ccc(S(=O)(=O)N2CCOCC2)cc1` [Compound 34, N-[4-(Morpholine-4-sulfonyl)-phenyl]-2-(4-oxo-4H-quinazolin-3-yl)-acetamide], under setting [1], the EC50 is greater than 25 µM.

For the compound `CCCCN(C)S(=O)(=O)c1ccc(NC(=O)Cn2cnc3ccccc3c2=O)cc1` [Compound 35, N-[4-(Butyl-methyl-sulfamoyl)-phenyl]-2-(4-oxo-4H-quinazolin-3-yl)-acetamide], under setting [1], the EC50 was greater than 25 µM.

In the case of `CN(Cc1ccccc1)S(=O)(=O)c1ccc(NC(=O)Cn2cnc3ccccc3c2=O)cc1` [Compound 36, N-[4-(Benzyl-methyl-sulfamoyl)-phenyl]-2-(4-oxo-4H-quinazolin-3-yl)-acetamide], the EC50 under setting [1] is greater than 25 µM.

`CC1CCCCN1S(=O)(=O)c1ccc(NC(=O)Cn2cnc3ccccc3c2=O)cc1` (stereo not shown) [Compound 37, N-[4-(2-Methyl-piperidine-1-sulfonyl)-phenyl]-2-(4-oxo-4H-quinazolin-3-yl)-acetamide]: under setting [1], the EC50 was greater than 25 µM.

Turning to `NS(=O)(=O)c1ccc(NC(=O)Cn2cnc3ccccc3c2=O)cc1` [Compound 38, 2-(4-Oxo-4H-quinazolin-3-yl)-N-(4-sulfamoyl-phenyl)-acetamide], the EC50 under setting [1] was greater than 25 µM.

Consider `O=C(Cn1cnc2ccccc2c1=O)Nc1ccc(S(=O)(=O)Nc2ncccn2)cc1` [Compound 39, 2-(4-Oxo-4H-quinazolin-3-yl)-N-[4-(pyrimidin-2-ylsulfamoyl)-phenyl]-acetamide], for which the EC50 under setting [1] was greater than 25 µM.

Take `O=C(Cn1cnc2ccccc2c1=O)Nc1ccc(S(=O)(=O)NCCCN2CCOCC2)cc1` [Compound 40, N-[4-(3-Morpholin-4-yl-propylsulfamoyl)-phenyl]-2-(4-oxo-4H-quinazolin-3-yl)-acetamide]: under setting [1], the EC50 was greater than 25 µM.

Turning to `O=C(Cn1cnc2ccccc2c1=O)Nc1ccc(S(=O)(=O)NCc2ccco2)cc1` [Compound 41, N-{4-[(Furan-2-ylmethyl)-sulfamoyl]-phenyl}-2-(4-oxo-4H-quinazolin-3-yl)-acetamide], the EC50 under setting [1] was greater than 25 µM.

Take `CC(C)N(C)S(=O)(=O)c1ccc(NC(=O)Cn2cnc3ccccc3c2=O)cc1` [Compound 42, N-[4-(Isopropyl-methyl-sulfamoyl)-phenyl]-2-(4-oxo-4H-quinazolin-3-yl)-acetamide]: the EC50 under setting [1] is greater than 25 µM.

`CC(NS(=O)(=O)c1ccc(NC(=O)Cn2cnc3ccccc3c2=O)cc1)C1CC2CCC1C2` (stereo not shown) [Compound 43, N-[4-(1-Bicyclo[2.2.1]hept-2-yl-ethylsulfamoyl)-phenyl]-2-(4-oxo-4H-quinazolin-3-yl)-acetamide]: the EC50 under setting [1] was greater than 25 µM.

For the compound `CC(C)NS(=O)(=O)c1ccc(NC(=O)Cn2cnc3ccccc3c2=O)cc1` [Compound 44, N-(4-Isopropyl-sulfamoyl-phenyl)-2-(4-oxo-4H-quinazolin-3-yl)-acetamide], the concentration for a half-maximal effect (EC50) under setting [1] was greater than 25 µM.

Consider `CN1CCN(S(=O)(=O)c2ccc(NC(=O)Cn3cnc4ccccc4c3=O)cc2)CC1` [Compound 45, N-[4-(4-Methyl-piperazine-1-sulfonyl)-phenyl]-2-(4-oxo-4H-quinazolin-3-yl)-acetamide], for which the EC50 under setting [1] was greater than 25 µM.

For `CNS(=O)(=O)c1ccc(NC(=O)Cn2cnc3ccccc3c2=O)cc1` [Compound 46, N-(4-Methylsulfamoyl-phenyl)-2-(4-oxo-4H-quinazolin-3-yl)-acetamide], the EC50 under setting [1] is greater than 25 µM.

Regarding `CC1CCN(S(=O)(=O)c2ccc(NC(=O)Cn3cnc4ccccc4c3=O)cc2)CC1` [Compound 47, N-[4-(4-Methyl-piperidine-1-sulfonyl)-phenyl]-2-(4-oxo-4H-quinazolin-3-yl)-acetamide], the EC50 under setting [1] was greater than 25 µM.

On to `O=C(Cn1cnc2ccccc2c1=O)Nc1ccc(S(=O)(=O)NC2CCS(=O)(=O)C2)cc1` (stereo not shown) [Compound 48, N-[4-(1,1-Dioxo-tetrahydro-1lambda*6*- thiophen-3-ylsulfamoyl)-phenyl]-2-(4-oxo-4H-quinazolin-3-yl)-acetamide], for which the EC50 under setting [1] is greater than 25 µM.

Turning to `CN(C1CCCCC1)S(=O)(=O)c1ccc(NC(=O)Cn2cnc3ccccc3c2=O)cc1` [Compound 49, N-[4-(Cyclohexyl-methyl-sulfamoyl)-phenyl]-2-(4-oxo-4H-quinazolin-3-yl)-acetamide], under setting [1], the concentration for a half-maximal effect (EC50) is greater than 25 µM.

A word on the EC50: it is the midpoint of the concentration-response curve. Broadly, the EC90 is the concentration at which the effect reaches the 90% level.
